“Also recorded” adds a separate entry of the source.
What was measured:
[1] = system: rats with Partial Sciatic Nerve Ligation (PSNL); experiment: Partial Sciatic Nerve Ligation (PSNL) thermal hyperalgesia test; assay type: in vivo, rat; conditions: 50 μM
Protocol: FIG. 9. […] Time-course of the effects of 50 μM (100 μL) of AppCH2ppA on PWL.
PSNL, with tight ligation of 33-50% of the sciatic nerve trunk, is a neuropathic pain model. We sub-cutaneously injected 50 μM of AppCH2ppA ([…]) on thermal hyperalgesia in rats with PSNL. […] Results are expressed as mean+/−S.E.M. In this model, the antinociceptive effect is 62%.

[2] = target: T1, rat homomeric P2X7 receptors (Rattus norvegicus, UniProt Q64663); experiment: Whole-cell patch clamp, rat homomeric P2X7 receptors; assay type: cell-based; conditions: 1 μM; ATP
T1 construct: expressed in transfected cells
T1 sequence (Q64663 1-595): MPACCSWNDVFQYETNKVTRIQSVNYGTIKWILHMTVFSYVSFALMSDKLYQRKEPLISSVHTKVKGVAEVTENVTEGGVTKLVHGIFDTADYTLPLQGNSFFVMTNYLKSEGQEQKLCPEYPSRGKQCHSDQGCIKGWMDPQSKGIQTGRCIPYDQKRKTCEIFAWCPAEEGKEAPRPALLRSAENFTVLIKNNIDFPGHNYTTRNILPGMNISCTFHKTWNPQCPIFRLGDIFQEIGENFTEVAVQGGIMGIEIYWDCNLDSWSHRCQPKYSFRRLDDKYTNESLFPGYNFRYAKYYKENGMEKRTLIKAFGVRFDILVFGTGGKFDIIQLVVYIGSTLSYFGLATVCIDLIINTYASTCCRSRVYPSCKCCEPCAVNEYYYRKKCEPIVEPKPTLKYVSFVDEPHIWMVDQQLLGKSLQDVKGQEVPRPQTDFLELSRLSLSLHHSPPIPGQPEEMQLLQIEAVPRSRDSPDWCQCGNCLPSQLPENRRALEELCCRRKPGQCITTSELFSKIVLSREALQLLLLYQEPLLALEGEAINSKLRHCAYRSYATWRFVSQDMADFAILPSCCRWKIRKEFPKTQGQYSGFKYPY
Protocol: FIG. 4. […] A. Example traces of responses induced by 10 μM ATP applied for 2 s every 2 min to HEK cells expressing rat homomeric P2X2 receptors in the presence and absence of 1 μM AppNHppA. B. Comparison of currents induced by the full agonist of P2X2 receptors, ATP, in the presence of 1 μM AppNHppA (right) and absence (left). C. The time course of the current in the presence and absence of 1 μM AppNHppA. D. Comparison of currents induced by the full agonist of rat homomeric P2X4 and P2X7 receptors, ATP, in the presence of 1 μM AppNHppA (right) and absence (left). Experiments were performed as in FIG. 2.
Trigeminal, nodose, DRG neurons or HEK cells were recorded in the whole-cell configuration while being continuously superfused (at 2 mL/min) with control solution containing (in mM): 152 NaCl, 5 KCl, 1 MgCl2, 2 CaCl2, 10 glucose, and 10 HEPES; pH was adjusted to 7.4 with NaOH and osmolarity was adjusted to 320 mOsM with glucose. […] Responses to selective P2X3 receptor agonist α,β-methylene-ATP (α,β-meATP; resistant to ectoATPase hydrolysis, Sigma-Aldrich) were measured using an EPC-9 amplifier and HEKA Patch Master software (HEKA Electronik, Germany). Cells were voltage-clamped at −70 mV. In most cells, series resistance was compensated by 80%. […]

SMILES	effect on thermal hyperalgesia (PWL) ([1]; 100 μL, subcutaneous)	antinociceptive effect ([1]; sub-cutaneous, thermal hyperalgesia, PWL) [%]	effect on P2X7 receptor-mediated currents [2]
Nc1ncnc2c1ncn2[C@@H]1O[C@H](COP(=O)(O)OP(=O)(O)CP(=O)(O)OP(=O)(O)OC[C@H]2O[C@@H](n3cnc4c(N)ncnc43)C(O)C2O)C(O)C1O (stereo in doubt) [AppCH2ppA]	reduced thermal hyperalgesia	62	
Nc1ncnc2c1ncn2[C@@H]1O[C@H](COP(=O)(O)OP(=O)(O)NP(=O)(O)OP(=O)(O)OC[C@H]2O[C@@H](n3cnc4c(N)ncnc43)C(O)C2O)C(O)C1O (stereo in doubt) [AppNHppA]			not observed to produce any effects; also recorded: non-inhibitory effect

— patent publication US20150119352A1, “DINUCELOSIDE POLYPHOSPHATES FOR THE TREATMENT OF PAIN” (GlobalAcorn Ltd., priority 2012, published 2015)
